Experiment: Metabolic stability in minipig intestinal fluid, quantification of released licofelone by HPLC/UV
Assay type: in vitro ADME, Gottingen SPF minipig
Conditions: incubation in diluted minipig intestinal fluid
Protocol: a) Preparation and Storage of Minipig Intestinal Fluid (IF)
Intestinal tissue/fluid and enterocyte samples were taken from a 10 month old, female Gottingen SPF minipig. The body weight was 21 kg. The minipig was fasted for approximately 28 hours before sampling of intestinal fluid/tissues and enterocytes. On the day of sampling, the minipig was weighed and anaesthetised. The animal was killed by exsanguination before sampling of intestinal fluid. An intestinal segment was ligated at both ends before removal. The isolated tissue was placed in isotonic saline and opened by a longitudinal cut for sampling of intestinal fluid.
The intestinal tissue from each segment was transferred into a Centrifuge Tube, immersed in 10 ml 50 mM phosphate buffer, pH 6.8 and frozen at −70° C.
b) Incubation Experiments with Minipig Intestinal Fluid (without FaSSIF) […]
c) Quantification of Licofelone by HPLC/UV
A set of six reference solutions (solvent: 1 vol IF and 4 vol 2% bovine serum albumin in FaSSIF pH 6.5) with licofelone concentrations between 38.0 and 0.19 μg/ml and the solvent without licofelone were analyzed in duplicate. The obtained concentration/peak area data pairs were subjected to linear regression analysis and the resulting calibration curve (r^2=0.9999) was used for quantification of licofelone in incubation experiments.

COC(=O)/C=C/C(=O)OCCOCCOCCOCCOC(=O)Cc1c(-c2ccc(Cl)cc2)c(-c2ccccc2)c2n1CC(C)(C)C2 [Example 8, (E)-But-2-enedioic acid 2-{2-[2-(2-{2-[2-(4-chloro-phenyl)-6,6-dimethyl-1-phenyl-6,7-dihydro-5H-pyrrolizin-3-yl]-acetoxy}-ethoxy)-ethoxy]-ethoxy}-ethyl ester methyl ester]
Cleavage of the ester bond, release of licofelone and monomethylfumarate: unexpected smooth cleavage of the ester bond
